In patent publication US10105357B2, “Indication of antibiotic drugs for preparation of cancer inhibition pharmaceutical composition” (LAUNX BIOMEDICAL CO., LTD., priority 2014, dated 2018):
Read-outs that look alike come from different tables or passages of the source.

Experiments:
Assay type in all cases: cell-based, human
cancer cell lines = assay: Cell viability analysis (WST-1) on cancer cell lines; conditions: drug 10 μM, 72 hours, WST-1; Table 3
[1] = system: HI650 (Lung Adenocarcinoma); assay: Cell viability analysis, lung cancer HI650; conditions: Homo sapiens, NCI-H1650, 72 h, read-out: The results of antibiotic drug inhibiting cancer cell lines (cell viability analysis), H1650, H1650; repeated experiment
[2] = system: A549 (Lung Adenocarcinoma); assay: Cell viability analysis, lung cancer A549; conditions: Homo sapiens, A549, 72 h
[3] = system: AGS (Gastric Adenocarcinoma); assay: Cell viability analysis, gastric cancer AGS; conditions: Homo sapiens, 72 h
[4] = system: MKN-45 (Gastric Adenocarcinoma); assay: Cell viability analysis, gastric cancer MKN-45; conditions: Homo sapiens, MKN-45, 72 h
[5] = system: HepG2 (Hepatocellular Carcinoma); assay: Cell viability analysis, hepatic cancer HepG2; conditions: Homo sapiens, HepG2, 72 h
[6] = system: Hep3B (hepatocellular carcinoma); assay: Cell viability analysis, hepatic cancer Hep3B; conditions: Homo sapiens, Hep3B, 72 h, read-out: The results of antibiotic drug inhibiting cancer cell lines (cell viability analysis), Hep3B
[7] = system: LoVo (Colorectal Adenocarcinoma); assay: Cell viability analysis, colon cancer LoVo; conditions: Homo sapiens, LoVo, 72 h
[8] = system: A375 (Amelanotic Melanoma); assay: Cell viability analysis, skin cancer A375; conditions: Homo sapiens, A-375, 72 h
[9] = system: BCC (basal cell carcinoma); assay: Cell viability analysis, skin cancer BCC; conditions: Homo sapiens, 72 h, read-out: The results of antibiotic drug inhibiting cancer cell lines (cell viability analysis), BCC
[10] = system: HeLa (Cervix Adenocarcinoma); assay: Cell viability analysis, cervical cancer HeLa; conditions: Homo sapiens, HeLa, 72 h
[11] = system: C-33A (Cervical carcinoma); assay: Cell viability analysis, cervical cancer C-33A; conditions: Homo sapiens, C-33-A, 72 h, read-out: The results of antibiotic drug inhibiting cancer cell lines (cell viability analysis), C-33A
[12] = system: PC3 (p53−) (Prostate Adenocarcinoma); assay: Cell viability analysis, prostate cancer PC3; conditions: Homo sapiens, 72 h
[13] = system: TSGH-8301 (Urinary Bladder Carcinoma); assay: Cell viability analysis, bladder cancer TSGH-8301; conditions: Homo sapiens, 72 h
T24 = assay: Cell viability analysis, bladder cancer T24; conditions: Homo sapiens, T-24, 72 h, read-out: The results of antibiotic drug inhibiting cancer cell lines (cell viability analysis), T24
[14] = system: MCF7 (Mammary Gland, Adenocarcinoma); assay: Cell viability analysis, breast cancer MCF7; conditions: Homo sapiens, MCF7, 72 h
[15] = system: MDA-MB-231 (Mammary Gland, Adenocarcinoma); assay: Cell viability analysis, breast cancer MDA-MB-231; conditions: Homo sapiens, MDA-MB-231, 72 h, read-out: The results of antibiotic drug inhibiting cancer cell lines (cell viability analysis), MDA-MB231
BxPC-3 = assay: Cell viability analysis, pancreatic cancer BxPC-3; conditions: Homo sapiens, BXPC-3, 72 h, read-out: The results of antibiotic drug inhibiting cancer cell lines (cell viability analysis), BxPC-3
AsPC-1 = assay: Cell viability analysis, pancreatic cancer AsPC-1; conditions: Homo sapiens, ASPC1, 72 h, read-out: The results of antibiotic drug inhibiting cancer cell lines (cell viability analysis), AsPC-1
NIH: OVCAR-3 = assay: Cell viability analysis, ovarian cancer NIH: OVCAR-3; conditions: Homo sapiens, OVCAR-3, 72 h, read-out: The results of antibiotic drug inhibiting cancer cell lines (cell viability analysis), NIH-OVCAR-3
TOV-21G = assay: Cell viability analysis, ovarian cancer TOV-21G; conditions: Homo sapiens, TOV21G, 72 h, read-out: The results of antibiotic drug inhibiting cancer cell lines (cell viability analysis), TOV-21G
[16] = system: SAS (Tongue squamous cell carcinoma); assay: Cell viability analysis, tongue cancer SAS; conditions: Homo sapiens, 72 h, read-out: The results of antibiotic drug inhibiting cancer cell lines (cell viability analysis), SAS
U-2OS = assay: Cell viability analysis, osteosarcoma U-2OS; conditions: Homo sapiens, U2OS, 72 h, read-out: The results of antibiotic drug inhibiting cancer cell lines (cell viability analysis), U2OS
[17] = system: 786-O (Renal adenocarcinoma); assay: Cell viability analysis, renal cancer 786-O; conditions: Homo sapiens, 786-0, 72 h, read-out: The results of antibiotic drug inhibiting cancer cell lines (cell viability analysis), 786-O
[18] = system: HL-60 (Acute Promyelocytic Leukemia); assay: Cell viability analysis, leukemia HL-60; conditions: Homo sapiens, HL-60, 72 h, read-out: cell viability (survival rate), HL-60, drug 10 μM, 72 hours, WST-1, OD450 nm

**Q.** How did the “inhibition effect on different cancer cell lines” value (cancer cell lines) turn out when `CO[C@H]1/C=C/O[C@@]2(C)Oc3c(C)c(O)c4c(O)c(c(/C=N/N5CCN(C6CCCC6)CC5)c(O)c4c3C2=O)NC(=O)/C(C)=C\C=C\[C@H](C)[C@H](O)[C@@H](C)[C@@H](O)[C@@H](C)[C@H](OC(C)=O)[C@@H]1C` [Rifapentine (Priftin), Rifapentine] was run?
**A.** significant inhibition effect

**Q.** And the viability at 10 µM [1]?
**A.** 69%

**Q.** What about the viability at 10 µM ([2]; read-out: The results of antibiotic drug inhibiting cancer cell lines (cell viability analysis), A549, A549, repeated experiment) of the same compound?
**A.** 87.4%

**Q.** And the viability at 10 µM ([2]; read-out: cell viability (survival rate), A549, drug 10 μM, 72 hours, WST-1, OD450 nm)?
**A.** 47.4%

**Q.** And the viability at 10 µM ([3]; read-out: The results of antibiotic drug inhibiting cancer cell lines (cell viability analysis), AGS, repeated experiment)?
**A.** 76.4%

**Q.** What about the viability at 10 µM ([3]; read-out: cell viability (survival rate), AGS, drug 10 μM, 72 hours, WST-1, OD450 nm) of the same compound?
**A.** 63.7%

**Q.** And the viability at 10 µM ([4]; read-out: The results of antibiotic drug inhibiting cancer cell lines (cell viability analysis), MKN-45, MKN-45, repeated experiment)?
**A.** 98.6%

**Q.** And the viability at 10 µM ([4]; read-out: cell viability (survival rate), MKN-45, drug 10 μM, 72 hours, WST-1, OD450 nm)?
**A.** 58.6%

**Q.** What about the viability at 10 µM ([5]; read-out: The results of antibiotic drug inhibiting cancer cell lines (cell viability analysis), HepG2, HepG2, repeated experiment) of the same compound?
**A.** 112%

**Q.** What about the viability at 10 µM ([5]; read-out: cell viability (survival rate), HepG2, drug 10 μM, 72 hours, WST-1, OD450 nm) of the same compound?
**A.** 102%

**Q.** What about the viability at 10 µM [6] of the same compound?
**A.** 110%

**Q.** What about the viability at 10 µM ([7]; read-out: The results of antibiotic drug inhibiting cancer cell lines (cell viability analysis), LoVo, repeated experiment) of the same compound?
**A.** 93.5%

**Q.** What about the viability at 10 µM ([7]; read-out: cell viability (survival rate), LoVo, drug 10 μM, 72 hours, WST-1, OD450 nm) of the same compound?
**A.** 92.3%

**Q.** What about the viability at 10 µM ([8]; read-out: The results of antibiotic drug inhibiting cancer cell lines (cell viability analysis), A375, A375, repeated experiment) of the same compound?
**A.** 98.2%

**Q.** What about the viability at 10 µM ([8]; read-out: cell viability (survival rate), A375, drug 10 μM, 72 hours, WST-1, OD450 nm) of the same compound?
**A.** 77.7%

**Q.** What about the viability at 10 µM [9] of the same compound?
**A.** 85.7%

**Q.** What about the viability at 10 µM ([10]; read-out: The results of antibiotic drug inhibiting cancer cell lines (cell viability analysis), HeLa, repeated experiment) of the same compound?
**A.** 104%

**Q.** And the viability at 10 µM ([10]; read-out: cell viability (survival rate), HeLa, drug 10 μM, 72 hours, WST-1, OD450 nm)?
**A.** 56.5%

**Q.** What about the viability at 10 µM [11] of the same compound?
**A.** 91.7%

**Q.** And the viability at 10 µM ([12]; read-out: The results of antibiotic drug inhibiting cancer cell lines (cell viability analysis), PC-3, PC-3, repeated experiment)?
**A.** 98.4%

**Q.** And the viability at 10 µM ([12]; read-out: cell viability (survival rate), PC3, drug 10 μM, 72 hours, WST-1, OD450 nm)?
**A.** 99.1%

**Q.** What about the viability at 10 µM ([13]; read-out: The results of antibiotic drug inhibiting cancer cell lines (cell viability analysis), TSGH-8301, TSGH-8301, repeated experiment) of the same compound?
**A.** 94.7%

**Q.** What about the viability at 10 µM ([13]; read-out: cell viability (survival rate), TSGH, drug 10 μM, 72 hours, WST-1, OD450 nm) of the same compound?
**A.** 99.2%

**Q.** What about the viability at 10 µM (T24) of the same compound?
**A.** 86.3%

**Q.** What about the viability at 10 µM ([14]; read-out: The results of antibiotic drug inhibiting cancer cell lines (cell viability analysis), MCF-7, MCF-7, repeated experiment) of the same compound?
**A.** 84.1%

**Q.** And the viability at 10 µM ([14]; read-out: cell viability (survival rate), MCF7, drug 10 μM, 72 hours, WST-1, OD450 nm)?
**A.** 46.2%

**Q.** What about the viability at 10 µM [15] of the same compound?
**A.** 93.3%

**Q.** What about the viability at 10 µM (BxPC-3) of the same compound?
**A.** 74%

**Q.** What about the viability at 10 µM (AsPC-1) of the same compound?
**A.** 78.2%

**Q.** What about the viability at 10 µM (NIH: OVCAR-3) of the same compound?
**A.** 104%

**Q.** And the viability at 10 µM (TOV-21G)?
**A.** 79.7%

**Q.** And the viability at 10 µM [16]?
**A.** 85.4%

**Q.** And the viability at 10 µM (U-2OS)?
**A.** 87.2%

**Q.** And the viability at 10 µM [17]?
**A.** 85.9%

**Q.** What about the viability at 10 µM [18] of the same compound?
**A.** 99.1%
